The results in this text go back to patent US12662491B2 (Redona Therapeutics, Inc., priority 2020, dated 2026).

pIC50: −log10 of the molar value.

One assay addresses T1, Zcchc11 enzyme (Homo sapiens, UniProt Q5TAX3).
T1 construct: made in house; host or cells: HEK293 cells (Zcchc11); E. coli Rosetta II (LIN28A)
T1 sequence (Q5TAX3 212-1420): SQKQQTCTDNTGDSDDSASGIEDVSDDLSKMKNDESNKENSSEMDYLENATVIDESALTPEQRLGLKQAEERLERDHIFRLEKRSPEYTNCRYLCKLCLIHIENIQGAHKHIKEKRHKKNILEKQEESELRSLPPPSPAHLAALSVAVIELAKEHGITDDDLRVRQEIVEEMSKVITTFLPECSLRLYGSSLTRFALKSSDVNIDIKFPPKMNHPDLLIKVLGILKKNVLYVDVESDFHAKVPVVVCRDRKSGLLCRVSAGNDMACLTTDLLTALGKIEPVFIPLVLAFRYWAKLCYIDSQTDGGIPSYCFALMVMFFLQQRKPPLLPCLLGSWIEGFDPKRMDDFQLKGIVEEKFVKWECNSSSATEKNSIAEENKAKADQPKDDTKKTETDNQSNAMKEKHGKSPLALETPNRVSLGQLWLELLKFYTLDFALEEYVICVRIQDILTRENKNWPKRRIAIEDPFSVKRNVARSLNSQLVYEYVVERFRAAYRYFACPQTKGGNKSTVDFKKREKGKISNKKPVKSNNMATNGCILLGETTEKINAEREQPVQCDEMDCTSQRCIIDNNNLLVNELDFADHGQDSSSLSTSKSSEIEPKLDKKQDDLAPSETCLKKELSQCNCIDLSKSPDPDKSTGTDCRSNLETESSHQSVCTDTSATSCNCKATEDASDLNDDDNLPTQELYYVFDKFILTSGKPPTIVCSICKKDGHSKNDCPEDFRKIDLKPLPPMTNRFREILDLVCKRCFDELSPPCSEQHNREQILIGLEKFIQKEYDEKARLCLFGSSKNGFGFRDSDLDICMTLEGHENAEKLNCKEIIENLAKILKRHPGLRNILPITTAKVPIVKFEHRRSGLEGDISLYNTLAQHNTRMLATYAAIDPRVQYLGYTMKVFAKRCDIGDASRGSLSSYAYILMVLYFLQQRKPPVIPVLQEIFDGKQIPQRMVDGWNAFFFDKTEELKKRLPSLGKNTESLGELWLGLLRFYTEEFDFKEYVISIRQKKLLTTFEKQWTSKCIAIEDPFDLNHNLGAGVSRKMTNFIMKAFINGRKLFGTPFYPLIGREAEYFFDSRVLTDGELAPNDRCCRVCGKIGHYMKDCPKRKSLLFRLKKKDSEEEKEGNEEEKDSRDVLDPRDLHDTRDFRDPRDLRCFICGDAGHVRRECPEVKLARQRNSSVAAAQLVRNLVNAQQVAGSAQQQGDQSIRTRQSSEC
Kind of assay: TUTase assay (Zcchc11 assay, Lin28a-dependent polyuridylation of pre-let-7). Type of assay: biochemical. The note with it: Lin28a-dependent Zcchc11 (Z11) TUTase activity; read-out: Potency Lin28a-dep Z11 IC50. The procedure, abridged: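 Human Zcchc11 residues 212-1420 (HEK293-expressed, MBP tag cleaved, C-terminal FLAG) at 0.2 nM, with 10 nM full-length human LIN28A and 2 nM 5′-fluorescein pre-let-7, preincubated with compound 30 min at room temperature. Reaction started with 5 uM UTP plus 4 nM 3′-rhodamine A20 quench probe; fluorescein loss read kinetically, IC50 from initial rates.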
As for `O=C(O)c1cn(-c2ccc(O)cc2F)c2c(F)c(N3CCC[C@@H]3COc3ccccn3)c(F)cc2c1=O` [Compound 80, (R)-6,8-difluoro-1-(2-fluoro-4-hydroxy-phenyl)-4-oxo-7-(2-((pyridin-2-yloxy)methyl)pyrrolidin-1-yl)-1,4-dihydro-quinoline-3-carboxylic acid], the pIC50 (commonly the negative decadic logarithm of the IC50, by convention in mol/L) was 5.00 to 6.00.
On to `CN(C(=O)[C@H]1CCCN1c1cc2c(cc1Cl)c(=O)c(C(=O)O)cn2-c1cnccn1)c1ccccn1` (racemic) [Compound 178, rac-(R)-6-chloro-7-(2-(methyl (pyridin-2-yl)carbamoyl)pyrrolidin-1-yl)-4-oxo-1-(pyrazin-2-yl)-1,4-dihydro-quinoline-3-carboxylic acid], for which the negative-log IC50 (pIC50) was less than 4.30.
For the molecule `O=C(O)c1cn(-c2cnccn2)c2nc(N3CCC[C@@H]3COc3nnccc3Cl)c(Cl)cc2c1=O` (racemic) [Compound 193, rac-(R)-6-chloro-7-(2-(((4-chloro-pyridazin-3-yl)oxy)methyl)pyrrolidin-1-yl)-4-oxo-1-(pyrazin-2-yl)-1,4-dihydro-1,8-naphthyridine-3-carboxylic acid], the negative-log IC50 (pIC50) is 5.00 to 6.00.
With `CN(C)C1CN(c2ccc(-n3cc(C(=O)O)c(=O)c4cc(Cl)c(N5CC(c6cn[nH]c6)C[C@@H]5COc5ncccc5Cl)cc43)cn2)C1` (stereo partly drawn) [Compound 304, 6-chloro-7-((2R)-2-(((3-chloropyridin-2-yl)oxy)methyl)-4-(1H-pyrazol-4-yl)pyrrolidin-1-yl)-1-(6-(3-(dimethyl-amino)azetidin-1-yl)pyridin-3-yl)-4-oxo-1,4-dihydro-quinoline-3-carboxylic acid], the pIC50 was not below 6.00.
The same measure, in the same setting: for `O=C(O)c1cn(-c2ccc(Cl)c(O)c2)c2cc(N3CCC[C@@H]3COc3ncccc3Cl)c(Cl)cc2c1=O` [Compound 126, (R)-6-chloro-1-(4-chloro-3-hydroxy-phenyl)-7-(2-(((3-chloropyridin-2-yl)oxy)methyl)pyrrolidin-1-yl)-4-oxo-1,4-dihydro-quinoline-3-carboxylic acid] the value was not below 6.00.
With `COc1ccc(Cl)c(OC[C@H]2CCCN2c2cc3c(cc2Cl)c(=O)c(C(=O)O)cn3-c2ccc(N3CC(N(C)C)C3)nc2)n1` [Compound 299, (R)-6-chloro-7-(2-(((3-chloro-6-methoxy-pyridin-2-yl)oxy)methyl)pyrrolidin-1-yl)-1-(6-(3-(dimethyl-amino)azetidin-1-yl)pyridin-3-yl)-4-oxo-1,4-dihydro-quinoline-3-carboxylic acid], the pIC50 was not below 6.00.
The same measure, in the same setting: the result for `CN(C)C1CN(c2ccc(-n3cc(C(=O)O)c(=O)c4cc(Cl)c(N5C6CC6C[C@@H]5COc5nc(N)ccc5Cl)cc43)cn2)C1` (stereo partly drawn) [Compound 336, 7-[(3R)-3-{[(6-Amino-3-chloropyridin-2-yl)oxy]methyl}-2-azabicyclo [3.1.0]hexan-2-yl]-6-chloro-1-{6-[3-(dimethyl-amino)azetidin-1-yl]pyridin-3-yl}-4-oxoquinoline-3-carboxylic acid] reads not below 6.00.
Regarding `Cc1cc2c(=O)c(C(=O)O)cn(-c3ccnc(N)c3)c2cc1N1CCC[C@@H]1COc1ncccc1Cl` [Compound 297, (R)-1-(2-aminopyridin-4-yl)-7-(2-(((3-chloropyridin-2-yl)oxy)methyl)pyrrolidin-1-yl)-6-methyl-4-oxo-1,4-dihydro-quinoline-3-carboxylic acid], the pIC50 is not below 6.00.
The same measure, in the same setting: for `O=C(O)c1cn(-c2cnn(C3CN(CC(F)F)C3)c2)c2cc(N3CCC[C@@H]3COc3ncccc3Cl)c(Cl)cc2c1=O` [Compound 319, 6-Chloro-7-[(2R)-2-[[(3-chloropyridin-2-yl)oxy]methyl]pyrrolidin-1-yl]-1-[1-[1-(2,2-difluoroethyl)azetidin-3-yl]pyrazol-4-yl]-4-oxoquinoline-3-carboxylic acid] the value was not below 6.00; for `O=C(O)c1cn(-c2ccccc2)c2c(F)c(N3CCC[C@@H]3COc3ccccn3)c(F)cc2c1=O` [Compound 86, (R)-6,8-difluoro-4-oxo-1-phenyl-7-(2-((pyridin-2-yloxy)methyl)pyrrolidin-1-yl)-1,4-dihydro-quinoline-3-carboxylic acid], not below 6.00.

Still in this assay, the particulars now being: Lin28a-dependent Zcchc11 (Z11) TUTase assay; read-out: Potency Lin28a-dep Z11 IC50.
As to `CN(C)C1CN(c2ccc(-n3cc(C(=O)O)c(=O)c4cc(Cl)c(N5CCC[C@@H]5COc5nc(OC(C)(C)C)ccc5Cl)cc43)cn2)C1` [Example 658, (R)-7-(2-(((6-(tert-butoxy)-3-chloropyridin-2-yl)oxy)methyl)pyrrolidin-1-yl)-6-chloro-1-(6-(3-(dimethylamino)azetidin-1-yl)pyridin-3-yl)-4-oxo-1,4-dihydroquinoline-3-carboxylic acid], the pIC50 is not below 6.00.
For the molecule `COC1CC(n2cc(C(=O)O)c(=O)c3cc(F)c(N4CCC[C@@H]4COc4ccccn4)cc32)C1` (stereo partly drawn) [Example 359, (R)-6-fluoro-1-(3-methoxycyclo-butyl)-4-oxo-7-(2-((pyridin-2-yloxy)methyl)pyrrolidin-1-yl)-1,4-dihydro-quinoline-3-carboxylic acid], the pIC50 was 5.00 to 6.00.
The same measure, in the same setting: for `COc1cnc(OC[C@H]2CC3CC3N2c2cc3c(cc2Cl)c(=O)c(C(=O)O)cn3-c2ccc(N)nc2)c(Cl)c1` (stereo partly drawn) [Example 651, 1-(6-aminopyridin-3-yl)-6-chloro-7-((3R)-3-(((3-chloro-5-methoxypyridin-2-yl)oxy)methyl)-2-azabicyclo[3.1.0]hexan-2-yl)-4-oxo-1,4-dihydroquinoline-3-carboxylic acid] the value was not below 6.00.
Consider `CN(C)C1CN(c2ncc(-n3cc(C(=O)O)c(=O)c4cc(Cl)c(N5CCC[C@@]5(C)COc5ncccc5Cl)nc43)cn2)C1` [Example 623, (S)-6-chloro-7-(2-(((3-chloropyridin-2-yl)oxy)methyl)-2-methylpyrrolidin-1-yl)-1-(2-(3-(dimethylamino)azetidin-1-yl)pyrimidin-5-yl)-4-oxo-1,4-dihydro-1,8-naphthyridine-3-carboxylic acid], for which the pIC50 is not below 6.00.
In the case of `O=C(O)c1cn(-c2ccc(N3CCNCC3)nc2)c2cc(N3CCC[C@@H]3COc3ncccc3Cl)c(Cl)cc2c1=O` [Example 478, (R)-6-chloro-7-(2-(((3-chloropyridin-2-yl)oxy)methyl)pyrrolidin-1-yl)-4-oxo-1-(6-(piperazin-1-yl)pyridin-3-yl)-1,4-dihydroquinoline-3-carboxylic acid], the pIC50 is not below 6.00.
Turning to `O=C(O)c1cn(-c2ccc(Cl)cc2)c2cc(N3CCC[C@@H]3COc3ccccn3)c(F)cc2c1=O` [Example 377, (R)-1-(4-chlorophenyl)-6-fluoro-4-oxo-7-(2-((pyridin-2-yloxy)methyl)pyrrolidin-1-yl)-1,4-dihydroquinoline-3-carboxylic acid], the pIC50 was not below 6.00.
As for `COCCNc1cnc(-n2cc(C(=O)O)c(=O)c3cc(Cl)c(N4CCC[C@@H]4COc4ncccc4Cl)cc32)cn1` [Example 481, 6-chloro-7-[(2R)-2-{[(3-chloropyridin-2-yl)oxy]methyl}pyrrolidin-1-yl]-1-{5-[(2-methoxyethyl)amino]pyrazin-2-yl}-4-oxo-1,4-dihydroquinoline-3-carboxylic acid], the pIC50 was not below 6.00.
On to `CN(C)C1CN(c2ccc(-n3cc(C(=O)O)c(=O)c4cc(Cl)c(N5CCC[C@@H]5COC5CCOC5)cc43)cn2)C1` (stereo partly drawn) [Example 594, 6-chloro-1-(6-(3-(dimethylamino)azetidin-1-yl)pyridin-3-yl)-4-oxo-7-((2R)-2-(((tetrahydro-furan-3-yl)oxy)methyl)pyrrolidin-1-yl)-1,4-dihydroquinoline-3-carboxylic acid], for which the negative-log IC50 (pIC50) is 5.00 to 6.00.
In the case of `COc1ccc(Cl)c(OC[C@H]2CCCN2c2cc3c(cc2C(F)(F)F)c(=O)c(C(=O)O)cn3-c2ccc(N3CC(N(C)C)C3)nc2)n1` [Example 659, (R)-7-(2-(((3-chloro-6-methoxypyridin-2-yl)oxy)methyl)pyrrolidin-1-yl)-1-(6-(3-(dimethylamino)azetidin-1-yl)pyridin-3-yl)-4-oxo-6-(trifluoromethyl)-1,4-dihydroquinoline-3-carboxylic acid], the negative-log IC50 (pIC50) is not below 6.00.
